Literature values in patent EP3372227A1, “TABLET FORMULATION OF ADEFOVIR DIPIVOXIL” (MH10 Spolka z ograniczona odpowiedzialnoscia, priority 2017, dated 2018).

Conditions: rat, in vivo

Nc1ncnc2c1ncn2CCOCP(=O)(O)O [adefovir]
relative oral bioavailability: 7.8
